Test results taken from patent US20260188423A1, “IDENTIFICATION OF CELL SURFACE ANTIGENS WHICH INDUCE T-CELL RESPONSES AND THEIR USES” (priority 2022, published 2026).
Read-outs that look alike come from different tables or passages of the source.

Experiments:
CD8^+ T-cells = settings: log-fold change, cited from earlier work
[1] = test system: antigen-specific T-cell clone; settings: peptide pool, response attributed to the dominant epitope, cited from earlier work
[2] = test system: peritoneal tumour biopsies; assay: Transcriptome analysis of the Murcia patient's peritoneal tumour biopsies; settings: target of 2nd generation personalized vaccines
Description: All the putative 8-20 amino acids long epitopes were created from these proteins and used for designing the 2nd generation of personalized vaccines according to the invention. […] These antigens have different length and amino acid sequences. All selected peptide antigen contains multiple highly ranked epitopes (13-66) presented on the cell surface by the patient's HLA class I and class II molecules. The range of the potency score is indicated for the selected epitopes. Epitopes presented by the patient's HLA class I and class II molecules are indicated to induce CD8 and CD4 responses, respectively. As described in the invention, the potency of each epitope in the vaccines was calculated and indicated to inform the physician about the predicted efficacy of the personalised vaccines in the recipient.

[3] = test system: peripheral mononuclear cells; assay: ELISPOT of T-cell responses to vaccine peptides after 1st immunization of the breast cancer patient; format: in vivo, human; settings: after the 1st immunization; for ELISpot: 5 days culture of PBMC from the patient
Excerpt: In the prior art, HLA-binding based epitope selection methods have been used for vaccine development. The epitopes in the personal vaccines made for the breast cancer patient were selected to bind at least 3 HLAs of the subject as described in the published US patent application 2018/264094. […] The potency of T-cell responses against the tumor antigens were predicted by the system described above (using HLA class I EWS, HLA class II EWS and overall EWS). The potency of T-cell responses to the vaccine peptides after the 1st immunization were measured with ELISPOT assay after 5 days culture of the peripheral mononuclear cells isolated from a blood sample of the patient (Spots/10^6 PBMC).

HeLa cells = assay: Cellular uptake of fluorescent-labeled peptide vaccines, flow cytometry; format: cell-based, human; settings: for cells taking up the vaccine: 40 μM, within 30 minutes; for cellular uptake (intensity of fluorescence) compared to control: flow cytometry, control without R8
Description: (§1) Methods: HeLa cells were seeded at a density of 200,000 cells per well in 6-well plates and allowed to grow for one day. On the second day, the cells were treated with the peptides at three different concentrations (2.5 μM, 10 μM, and 40 μM) for two different incubation times (15 minutes and 30 minutes). After the treatment, the cells were detached using trypsin, washed, and resuspended in PBS. The cells were then analyzed using a FACS Canto flow cytometer. A total of 30,000 events were acquired, and the percentage of fluorescent cells and fluorescent intensity (geometric mean and median) were determined through flow analysis.
as §1, with “Methods” for “Methods:”

[4] = ABF cohort individual BC10, Healthy
[5] = ABF cohort individual AP0201, Hospitalized
[6] = Subject 1327414, cohort Healthy
[7] = Subject 1005699, cohort COVID-19-Acute

AADLDDFSKQL [SARS-COV-2 peptide of the ABF cohort data]
LFC (CD8^+ T-cells; [4]): 0

ADLDDFSKQL [SARS-COV-2 peptide of the ABF cohort data]
LFC (CD8^+ T-cells; [5]): 0

AFPFTIYSL [SARS-COV-2 peptide of the ABF cohort data]
LFC (CD8^+ T-cells; [5]): 0

AHAEETRKL [SARS-COV-2 peptide of the ABF cohort data]
LFC (CD8^+ T-cells; [5]): 0

AIMTRCLAV
Hits [1, 6]: 1

ALLADKFPVL [SARS-COV-2 peptide of the ABF cohort data]
LFC (CD8^+ T-cells; [5]): 0
LFC (CD8^+ T-cells; [4]): 0

ALLAVFQSA [SARS-COV-2 peptide of the ABF cohort data]
LFC (CD8^+ T-cells; [4]): 0

ALNTLVKQL
Hits [1, 6]: 1

ALQDAYYRA [SARS-COV-2 peptide of the ABF cohort data]
LFC (CD8^+ T-cells; [4]): 0

ALRKVPTDNY [SARS-COV-2 peptide of the ABF cohort data]
LFC (CD8^+ T-cells; [4]): 0

ALTCFSTQF [SARS-COV-2 peptide of the ABF cohort data]
LFC (CD8^+ T-cells; [4]): 0

ALVYFLQSI [SARS-COV-2 peptide of the ABF cohort data]
LFC (CD8^+ T-cells; [5]): 0

AMDEFIERY [SARS-COV-2 peptide of the ABF cohort data]
LFC (CD8^+ T-cells; [4]): 0

ANPKTPKYKF [SARS-COV-2 peptide of the ABF cohort data]
LFC (CD8^+ T-cells; [5]): 0

APFLYLYAL [SARS-COV-2 peptide of the ABF cohort data]
LFC (CD8^+ T-cells; [5]): 0

APHGVVFL [SARS-COV-2 peptide of the ABF cohort data]
LFC (CD8^+ T-cells; [5]): 0

APHGVVFLHV [SARS-COV-2 peptide of the ABF cohort data]
LFC (CD8^+ T-cells; [5]): 0

APISAMVRM [SARS-COV-2 peptide of the ABF cohort data]
LFC (CD8^+ T-cells; [4]): 0

APKEIIFL [SARS-COV-2 peptide of the ABF cohort data]
LFC (CD8^+ T-cells; [4]): 0

AYILFTRFFYV
Hits [1, 7]: 3
Hits [1, 6]: 1

BLTP2
Relative expression [2]: 95

DLFMRIFTI
Hits [1, 7]: 1

ELIRQGTDY
Hits [1, 7]: 2

FAYANRNRF
Hits [1, 7]: 1

FCNDPFLGVY
Hits [1, 7]: 1

FEYVSQPFL
Hits [1, 7]: 1

FTSSRMSSFNRHMKTHTSEK [CTCFL long-peptide personal vaccine of the breast cancer patient]
ELISpot [3]: 48 Spots/10^6 PBMC

Fluoresc-EEKEIIVIKDTEKKDQS-RRRRRRRR-SQFNVPMLY-NH2 (fluorescein-EEKEIIVIKDTEKKDQSRRRRRRRRSQFNVPMLY-NH2) [AKAP-4-specific Personalized Vaccine, AKAP-4-specific VERDI Vaccine]
cells taking up the vaccine (HeLa cells; HeLa cells): 45%
cellular uptake (intensity of fluorescence) compared to control (HeLa cells): significantly higher uptake

Fluoresc-THVDIRTLEDLLMGTL-RRRRRRRR-RAHYNIVTF-NH2 (fluorescein-THVDIRTLEDLLMGTLRRRRRRRRRAHYNIVTF-NH2) [HPV-specific Personalized Vaccine, E7 (HPV16)-specific VERDI Vaccine]
more peptide accumulated in each cell compared to the control vaccines (median fluorescence intensity) (HeLa cells; HeLa cells): approximately 30%
cells taking up the vaccine (HeLa cells; HeLa cells): more than 50%
cells taking up the vaccine (HeLa cells; HeLa cells, listed as HPV-specific vaccine): 53%
cellular uptake (intensity of fluorescence) compared to control (HeLa cells): significantly higher uptake

IELSLIDFYL
Hits [1, 7]: 4

ITLATCELY
Hits [1, 7]: 12
Hits [1, 6]: 1

KEIIFLEGETL
Hits [1, 6]: 1

NEQDLVREEAQKMSSLLPTM [SPAG9 long-peptide personal vaccine of the breast cancer patient]
ELISpot [3]: 0 Spots/10^6 PBMC

NVFAFPFTIY
Hits [1, 6]: 19

QEESFSPTAMDAIFGSLSDE [MAGEAA long-peptide personal vaccine of the breast cancer patient]
ELISpot [3]: 0 Spots/10^6 PBMC

RLDQLLRHVMNPLETLSITN [PRAME long-peptide personal vaccine of the breast cancer patient]
ELISpot [3]: 66 Spots/10^6 PBMC

SDTKDYFMSKTLGIGRLKRP [FSIP1 long-peptide personal vaccine of the breast cancer patient]
ELISpot [3]: 257 Spots/10^6 PBMC

SGSSYFVLANGHILPNSENA [FMRINB long-peptide personal vaccine of the breast cancer patient]
ELISpot [3]: 130 Spots/10^6 PBMC

SVLLFLAFV
Hits [1, 6]: 5

SVYADQVNIDYLMNRPQNLR [AKAP4 long-peptide personal vaccine of the breast cancer patient]
ELISpot [3]: 366 Spots/10^6 PBMC
T cell responses (ELISPOT) ([3]; breast cancer patient): 366 spots/million cells

TLPPAWQPFLKDHRISTFKN [BIRC5 long-peptide personal vaccine of the breast cancer patient]
ELISpot [3]: 71 Spots/10^6 PBMC

VASQSIIAY
Hits [1, 7]: 23
Hits [1, 6]: 4

VVFLHVTYV
Hits [1, 7]: 1
Hits [1, 6]: 8

WT1
Relative expression [2]: 59

B1: SPAG9 (protein, UniProt O60271 1-1321, looked up)
C-Jun-amino-terminal …: MELEDGVVYQEEPGGSGAVMSERVSGLAGSIYREFERLIGRYDEEVVKELMPLVVAVLENLDSVFAQDQEHQVELELLRDDNEQLITQYEREKALRKHAEEKFIEFEDSQEQEKKDLQTRVESLESQTRQLELKAKNYADQISRLEEREAELKKEYNALHQRHTEMIHNYMEHLERTKLHQLSGSDQLESTAHSRIRKERPISLGIFPLPAGDGLLTPDAQKGGETPGSEQWKFQELSQPRSHTSLKVSNSPEPQKAVEQEDELSDVSQGGSKATTPASTANSDVATIPTDTPLKEENEGFVKVTDAPNKSEISKHIEVQVAQETRNVSTGSAENEEKSEVQAIIESTPELDMDKDLSGYKGSSTPTKGIENKAFDRNTESLFEELSSAGSGLIGDVDEGADLLGMGREVENLILENTQLLETKNALNIVKNDLIAKVDELTCEKDVLQGELEAVKQAKLKLEEKNRELEEELRKARAEAEDARQKAKDDDDSDIPTAQRKRFTRVEMARVLMERNQYKERLMELQEAVRWTEMIRASRENPAMQEKKRSSIWQFFSRLFSSSSNTTKKPEPPVNLKYNAPTSHVTPSVKKRSSTLSQLPGDKSKAFDFLSEETEASLASRREQKREQYRQVKAHVQKEDGRVQAFGWSLPQKYKQVTNGQGENKMKNLPVPVYLRPLDEKDTSMKLWCAVGVNLSGGKTRDGGSVVGASVFYKDVAGLDTEGSKQRSASQSSLDKLDQELKEQQKELKNQEELSSLVWICTSTHSATKVLIIDAVQPGNILDSFTVCNSHVLCIASVPGARETDYPAGEDLSESGQVDKASLCGSMTSNSSAETDSLLGGITVVGCSAEGVTGAATSPSTNGASPVMDKPPEMEAENSEVDENVPTAEEATEATEGNAGSAEDTVDISQTGVYTEHVFTDPLGVQIPEDLSPVYQSSNDSDAYKDQISVLPNEQDLVREEAQKMSSLLPTMWLGAQNGCLYVHSSVAQWRKCLHSIKLKDSILSIVHVKGIVLVALADGTLAIFHRGVDGQWDLSNYHLLDLGRPHHSIRCMTVVHDKVWCGYRNKIYVVQPKAMKIEKSFDAHPRKESQVRQLAWVGDGVWVSIRLDSTLRLYHAHTYQHLQDVDIEPYVSKMLGTGKLGFSFVRITALMVSCNRLWVGTGNGVIISIPLTETNKTSGVPGNRPGSVIRVYGDENSDKVTPGTFIPYCSMAHAQLCFHGHRDAVKFFVAVPGQVISPQSSSSGTDLTGDKAGPSAQEPGSQTPLKSMLVISGGEGYIDFRMGDEGGESELLGEDLPLEPSVTKAERSHLIVWQVMYGNE
Relative expression [2]: 70

B2: ODF2 (protein, UniProt Q5BJF6 1-829, looked up)
Outer dense fiber protein 2: MSASSSGGSPRFPSCGKNGVTSLTQKKVLRAPCGAPSVTVTKSHKRGMKGDTVNVRRSVRVKTKVPWMPPGKSSARPVGCKWENPPHCLEITPPSSEKLVSVMRLSDLSTEDDDSGHCKMNRYDKKIDSLMNAVGCLKSEVKMQKGERQMAKRFLEERKEELEEVAHELAETEHENTVLRHNIERMKEEKDFTILQKKHLQQEKECLMSKLVEAEMDGAAAAKQVMALKDTIGKLKTEKQMTCTDINTLTRQKELLLQKLSTFEETNRTLRDLLREQHCKEDSERLMEQQGALLKRLAEADSEKARLLLLLQDKDKEVEELLQEIQCEKAQAKTASELSKSMESMRGHLQAQLRSKEAENSRLCMQIKNLERSGNQHKAEVEAIMEQLKELKQKGDRDKESLKKAIRAQKERAEKSEEYAEQLHVQLADKDLYVAEALSTLESWRSRYNQVVKEKGDLELEIIVLNDRVTDLVNQQQTLEEKMREDRDSLVERLHRQTAEYSAFKLENERLKASFAPMEDKLNQAHLEVQQLKASVKNYEGMIDNYKSQVMKTRLEADEVAAQLERCDKENKILKDEMNKEIEAARRQFQSQLADLQQLPDILKITEAKLAECQDQLQGYERKNIDLTAIISDLRSRIEHQGDKLEMAREKHQASQKENKQLSLKVDELERKLEATSAQNIEFLQVIAKREEAIHQSQLRLEEKTRECGTLARQLESAIEDARRQVEQTKEHALSKERAAQNKILDLETQLSRTKTELSQLRRSRDDADRRYQSRLQDLKDRLEQSESTNRSMQNYVQFLKSSYANVFGDGPYSTFLTSSPIRSRSPPA
Relative expression [2]: 19
